Legend:
[1] = test system: multiple myeloma cell lines; assay: [3H]thymidine incorporation assay, survival of multiple myeloma cell lines; format: cell-based, human; conditions: 6-day treatment; all lines tested apart from RPMI-8226 and KMM-1
Experimental: (§1) Values express the percentage of live cells present in the treated cultures relative to the live cells present in the respective untreated cultures and denote means±SD ([WM]; n=3). UT, untreated. […] Values express the percentage of inhibition of Gadd45β binding to MKK7 relative to the binding measured in the absence of peptide. […] Co-immunoprecipitations (IP) were performed using an anti-FLAG antibody (a-FLAG); western blots (WB) were developed using an anti-HA or an anti-MKK7 antibody, as shown.
[^3H]Thymidine incorporation and trypan blue exclusion assays were performed using standard methods (Mauro et al., 2011). […] Apoptosis analyses were performed using PI staining as described in Mauro et al., 2011. Additional details are provided in the Supplemental Experimental Procedures.

[2] = in vivo pharmacokinetic analyses after single intravenous injection; conditions: calculated from measured PK values, k0=k1×Vd×Cp
Experimental: In vitro pharmacokinetic assays were performed according to established, in-house protocols and included: plasma stability (human), thermodynamic solubility (PBS pH 7.4, at 37° C. for 14 days), microsomal stability (human), plasma protein binding (PPB; mouse and human), and distribution coefficient (Log D). In vivo pharmacokinetic analyses were also performed at Cyprotex according to established, in-house protocols. Briefly, the peptides were dissolved in PBS and administered by single intravenous injection to CD1 male mice at the dose of 10 mg/kg (25-30 g of total body weight; n=3 mice per time point per compound). Blood samples were collected in heparinized tubes at up to 7 time points after this injection (i.e. 0.08, 0.25, 0.5, 1, 2, 4 and 8 hr), and the plasma concentrations of the test peptide were determined at each time point by LC-MS/MS, using a five-point standard curve covering a peptide concentration range from 3 to 3,000 ng/mL. Standard curves were prepared using blank plasma matrices and treated in the same manner as the test samples. […] Values were calculated from the data of the peptide plasma concentration versus time curves using a non-compartmental model analysis, as described elsewhere (Groulx, 2006; Landaw and Di Stefano 3rd, 1982). The doses of z-DTP2 and DTP3 predicted to achieve the therapeutic plasma concentration of 1 μM at the steady state were calculated from the measured pharmacokinetic values using the following equation: k0=k1×Vd×Cp (where Vd is expressed in L/kg; Cp is the plasma concentration at the steady state expressed in mg/L; k0 is the zero order input expressed in mg/kg/hr; k1 is the first order elimination constant [0.693/t1/2]).

[3] = test system: mouse LN cells and splenocytes; assay: trypan blue exclusion assay, survival of mouse LN cells and splenocytes; format: cell-based; conditions: DTP3 100 μM, PS-1145 20 μM, 144 hr
Experimental: as §1
[…] Cell viability was measured by using trypan blue exclusion or [^3H]thymidine incorporation assays performed in the manner described above (Mauro et al., 2011; Griffiths and Sundaram, 2011; Arnold et al., 2008), as indicated.

[4] = mouse, in vivo, iv, 10 mg/kg
[5] = test system: medullary KMS-12 multiple myeloma xenografts; format: in vivo, NOD/SCID mice; conditions: 29 mg/kg/day intermittent infusion over 8 weeks; experimental end-point day 161
Experimental: Mice were housed in the animal facilities at Hammersmith. All experiments were conducted under PPL 70/6874, after approval by the Imperial College Ethical Review Process and the Home Office. For the plasmacytoma model, NOD/SCID mice (NOD.CB17-Prkdc^scid/IcrCrl; Charles River) were injected subcutaneously with 1.0×10^7 U266 or KMS-11 multiple myeloma cells, and then randomized into treatment groups and treated by infusion, as shown. Tumour volumes were measured as described in Mauro et al., 2011. For the orthotopic multiple myeloma model, mice of the same strain were sub-lethally irradiated and then injected intravenously with 1.0×10^7 KMS-12-BM multiple myeloma cells, as described in Rabin et al., 2007). […] Animals were monitored daily and euthanized on day 161 of treatment start or when they reached any of the end-points in the PPL. […]
For experiments in the medullary xenograft model, 6 to 8-week old male NOD/SCID mice (NOD.CB17-Prkdc^scid/IcrCrl; Charles River) were sub-lethally irradiated (3.50 Gy) and, then, injected intraperitoneally with purified anti-CD122 monoclonal antibody (200 μg/mouse), as above. […] Animals were monitored daily for weight loss and other clinical signs of medullary disease, such as hind limb paralysis and behavioural changes, and euthanized with CO2 on day 161 of treatment start or when the disease severity reached any of the end-points stated in the PPL. […]

[6] = test system: diffuse large B-cell lymphoma (DLBCL) cell lines; assay: PI nuclear staining assay, apoptotic cells in DLBCL cell lines; format: cell-based, human; conditions: 10 μM, 6 days
Experimental: Current treatment of diffuse large B-cell lymphoma typically involves treatment with combination therapy, such as cyclophosphamide, doxorubicin, vincristine and prednisone (CHOP), or rituximab, cyclophosphamide, doxorubicin, vincristine and prednisone (R-CHOP). With those current treatments, many patients relapse and/or develop drug resistance at some point. The potential of the Gadd45β/MKK7 inhibitor DTP3 to operate in these settings was evaluated, by determining levels of apoptosis in diffuse large B-cell lymphoma cell lines known to be resistant to current therapies (HT, SU-DHL-8, U-2932, RC-K8 and RIVA, see for example Kaneko et al, Clinical Cancer Research, 2014, 20, p 1814-1820; Naylor et al, Cancer Research, 2011, Volume 71, p 2643-2653; Lyu et al, Cancer Research, 2013, Volume 73, Issue 8, Supplement 1), following treatment of those cells with DTP3. These cells have CARD11, A20 and/or MYD88 mutations and are also known to be resistant to agents such as Bruton's tyrosine kinase inhibitors, spleen tyrosine kinase inhibitors, PI3K inhibitors and/or protein kinase C inhibitors.
The percentages of apoptotic cells are depicted.
A comparison was made between the ability of DTP3 to kill various DLBCL cell lines by apoptosis in vitro. Cell lines HT, SU-DHL-8, U-2932 and RC-K8 which are known to be sensitive to DTP3; and insensitive cell lines RI-1, NU-DUL-1, TMD8, and HBL1 were used. Cell death was assessed using a standard propidium iodide (PI) nuclear staining assay followed by flow cytometry whereby the proportion of cells with a sub G1-DNA content was measured after cells had been exposed to DTP3 for 6 days at 10 μM. As controls, further populations of cells were left untreated (UT) or were treated with a scrambled D-tripeptide (SCR) for 6 days.
Apoptosis analyses were performed using propidium iodide (PI) nuclear labelling, as described previously (Riccardi and Nicoletti, 2006). Briefly, cells were seeded at a density of 2×10^5 cells/well into wells of either 24- or 48-well plates and cultured in the presence or absence of treatment, as shown. Cells were then fixed in 70% ice-cold ethanol for 16 hr, washed in PBS, and treated with ribonuclease A (50 μg/mL) for 30 min at room temperature. Samples were finally stained with PI (50 μg/mL) in 0.1% sodium citrate buffer for 2 to 4 hr at 4° C. in the dark, and data were acquired using a FACSCalibur automated system (Becton Dickinson) and analysed with FlowJo.

## CC(=O)N[C@H](Cc1ccc(O)cc1)C(=O)N[C@H](CCCNC(=N)N)C(=O)N[C@H](Cc1ccccc1)C(N)=O [DTP3, Acetyl-Tyr-Arg-Phe-NH2]
[1]
  cytotoxic activity in multiple myeloma cell lines: potent and selective capacity to kill multiple myeloma cells via apoptosis
[2]
  predicted dose required to achieve the therapeutic plasma concentration of 1 μM at the steady state (k0): 0.81 mg/kg/h
[3]
  toxicity to normal cells compared with PS-1145: far lesser toxicity to normal cells than the IKKβ inhibitor PS-1145
[4]
  plasma clearance (CL) compared with z-DTP2: significantly lower
  terminal half-life (t1/2) compared with z-DTP2: somewhat shorter
  volume of distribution (Vd) compared with z-DTP2: much lower
[5]
  median OS: > 161 days
[6]; HT, SU-DHL-8, U-2932, RC-K8
  apoptosis in DLBCL cell lines resistant to conventional DLBCL treatments: effective in causing apoptosis
  apoptosis in sensitive DLBCL cell lines: substantial increases in apoptosis
[6]; RI-1, NU-DUL-1, TMD8, HBL1
  apoptosis in insensitive DLBCL cell lines: no increase in apoptosis
